Read-outs that look alike come from different tables or passages of the source.
Tests used:
[1] = test system: adjuvant-induced arthritis in rats; experiment: Established Adjuvant-Induced Arthritis in Rats (A.A.); assay type: in vivo, Charles River Lewis male rats; settings: Rattus norvegicus, 24 h, read-out: A.A. ED50% (ED50% decrease from control paw volume)
[2] = test system: stretching or writhing syndrome indicative of pain induced by phenylquinone; experiment: Phenylquinone Writhing Test; assay type: in vivo, female white mice; settings: Mus musculus, 0.5 h; oral, fasted mice; at 1/2 hour; read-out: ED50 (effective analgesic dose for 50% of the mice)
Procedure: Phenylquinone Writhing Test
A standard procedure for detecting and comparing the analgesic activity of compounds in this series for which there is good correlation with human efficacy is the standard phenylquinone writhing test modified from Siegmund, et al., Proc. Soc. Exp. Biol. Med. 95, 729 (1957). A test compound suspended in 1% methylcellulose was given orally to fasted (17-21 hours) female white mice, 5-20 animals per double blind test. Aqueous (0.01% phenyl-p-benzoquinone) phenylquinone was injected intraperitoneally at 24 minutes later using 0.20 ml per mouse. […] The effective analgesic dose for 50% of the mice (ED50) was calculated by the moving average method of Thompson, W. R., Bact. Rev. 11, 115-145 (1947); also time of peak action was determined for many of the compounds.

[3] = oral, rats, 7 daily doses by gavage, paw volume of uninjected left hind paw one day after last dose

SMILES	ED50 [1, 3] [mg/kg]	ED50 ([1]; po) [mg/kg]	ED50 [2] [mg/kg]
CC(C)Cc1ccc(C(C)C(=O)O)cc1 (centres unmarked) [Ibuprofen, ibuprofen]	100	–	–
CCCCC1C(=O)N(c2ccccc2)N(c2ccccc2)C1=O [Phenylbutazone, phenylbutazone]	10	–	–
CC(=O)Oc1ccccc1C(=O)O [Aspirin, aspirin]	–	305	–
O=[N+]([O-])c1nc(-c2ccc(F)cc2)c(-c2ccc(F)cc2)[nH]1 [Example 1, 4,5-bis(4-Fluorophenyl)-2-nitroimidazole]	0.6	–	59
COc1ccc(-c2nc([N+](=O)[O-])[nH]c2-c2ccc(OC)cc2)cc1 [Example 2, 4,5-bis(4-Methoxyphenyl)-2-nitroimidazole]	2.5	–	< 130
COc1ccc2c(c1)c(CC(=O)O)c(C)n2C(=O)c1ccc(Cl)cc1 [Indomethacin, indomethacin]	–	0.3	–

From patent US4199592A, “Antiinflammatory 4,5-diaryl-2-nitroimidazoles” (E. I. Du Pont de Nemours and Company, priority 1979, dated 1980)
